Reference: patent publication US6169087A, “Modulators of protein tyrosine phosphatases (PTPases)” (Novo Nordisk A/S, priority 1998, dated 2001)

Target: T1, truncated form of PTP1B (corresponding to the first 321 amino acids) (Homo sapiens, UniProt P18031)
T1 construct: truncated form of PTP1B (corresponding to the first 321 amino acids); made in house; host or cells: E. coli
T1 sequence (P18031 1-321): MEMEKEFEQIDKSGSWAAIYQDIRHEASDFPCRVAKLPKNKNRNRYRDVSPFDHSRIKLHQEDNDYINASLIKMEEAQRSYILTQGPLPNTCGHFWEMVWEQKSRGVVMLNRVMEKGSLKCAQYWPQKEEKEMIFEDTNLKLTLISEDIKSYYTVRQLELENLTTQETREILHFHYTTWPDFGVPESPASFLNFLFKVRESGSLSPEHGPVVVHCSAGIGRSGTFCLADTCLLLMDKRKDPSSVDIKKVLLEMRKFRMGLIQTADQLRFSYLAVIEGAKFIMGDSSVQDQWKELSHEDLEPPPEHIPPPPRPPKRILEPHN
Assay: Inhibition of classical PTP1B, p-nitrophenyl phosphate enzyme assay
Assay type: biochemical
Settings: substrate p-nitrophenyl phosphate 0.16 to 10 mM; 100 mM sodium acetate pH 5.5; 25° C., 60 minutes; absorbance at 405 nm; read-out: PTP1B K1 values
Description: These compounds were evaluated for biological activity with a truncated form of PTP1B (corresponding to the first 321 amino acids), which was expressed in E. coli and purified to apparent homogeneity using published procedures well-known to those skilled in the art. The enzyme reactions were carried out using standard conditions essentially as described by Burke et al. (Biochemistry 35; 15989-15996 (1996)). The assay conditions were as follows. Appropriate concentrations of the compounds of the invention were added to the reaction mixtures containing different concentrations of the substrate, p-nitrophenyl phosphate (range: 0.16 to 10 mM--final assay concentration). The buffer used was 100 mM sodium acetate pH 5.5, 50 mM sodium chloride, 0.1% (w/v) bovine serum albumin and 5 mM dithiothreitol (total volume […]). The reaction was started by addition of the enzyme and carried out in microliter plates at 25° C. for 60 minutes. The reactions were stopped by addition of NaOH. The enzyme activity was determined by measurement of the absorbance at 405 nm with appropriate corrections for absorbance at 405 nm of the compounds and p-nitrophenyl phosphate. The data were analyzed using nonlinear regression fit to classical Michaelis Menten enzyme kinetic models. Inhibition is expressed as Ki values in μM.

| Ki [µM] | SMILES |
| --- | --- |
| 4 | Nc1scc2c1c(=O)oc1ccc3ccccc3c12 [Example 3, 3-Amino4H-naphtho[2,1-b]thieno[3,4-d]pyran-4-one] |
| 2 | CCSc1nn(-c2ccc(OC)cc2)c(=O)c2c(N)scc12 [Example 2, 7-Amino-4-ethylsulfanyl-2-(4-methoxy-phenyl)thieno[3,4-d]pyridazin-1(2H)-one] |
